In brackets after ≈: the same amount, converted by molar mass. Non-standard residues stand in square brackets, D forms with d. Residues, ends and D or L forms follow the SMILES beside them. *: point of attachment. Fmoc = O=C(OCC1c2ccccc2-c2ccccc21)*; Cha = N[C@@H](CC1CCCCC1)C(=O)O; AMC = Cc1cc(=O)oc2cc(N*)ccc12
Conditions: for aqueous solubility: pH 6.8

Row | SMILES | MDR1-MDCK efflux ratio | intrinsic clearance, human liver microsomes [mL/min/kg] | intrinsic clearance, rat liver microsomes [mL/min/kg] | aqueous solubility [µg/mL] | fraction unbound, human plasma | fraction unbound, rat plasma
1 | Cc1cccc2c1Oc1nc(-c3ccccc3)[nH]c(=S)c1C2 | – | – | – | 0.33 (≈ 1.08 µM) | – | –
2 | CC(C)Oc1ccc(CCNC(=O)N2CCC[C@H]2C(=O)N2CCCCC2)cc1 | 50.9 | 19.7 | 492 | – | – | –
3 | CCCn1cnnc1CN(C)Cc1ccc(C(F)(F)F)nc1 | 23.6 | ≤ 4.74 | 29.5 | – | – | –
4 | c1ccc(Cc2cccc3cc4c(nc23)OCCNC4)cc1 | – | 24.5 | 1120 | 47.8 (≈ 165 µM) | – | –
5 | CCOc1ccc(NC(=O)c2ccc3c(c2)NC(=O)CO3)cc1 | – | ≤ 4.74 | 459 | – | – | –
6 | CN(C)CCNc1c2c(c(C#N)c3nc4ccccc4n13)CCCC2 | 2.57 | 24 | 270 | 36 (≈ 108 µM) | – | –
7 | COCCNC(=O)c1ccnc(C2CCNCC2)c1 | – | ≤ 4.74 | 16.1 | – | 1 | 1
8 | Cc1nc(C)c(C)c(NCc2cc(-c3ccc(F)cc3)no2)n1 | 0.906 | 20.3 | 242 | 37.5 (≈ 120 µM) | – | –
9 | CN(C[C@@H]1COCCO1)S(=O)(=O)Nc1ccc2ccc3ncc(-c4cnn(C)c4)cc3c(=O)c2c1 | 15.5 | 44.3 | 219 | 3.36 (≈ 6.78 µM) | – | –
10 | CN1CCCN(C(=O)Nc2cccc(OCC(F)F)n2)CC1 | – | ≤ 4.74 | 191 | – | – | –
11 | Cc1cc(C)c2ccc(C(=O)N3CCN(c4nc[nH]n4)CC3)cc2n1 | 70.8 | ≤ 4.74 | 16.8 | – | – | –
12 | CN(C)[C@@H]1CN(C(=O)c2cc3ccc(F)cc3[nH]2)C[C@H]1O | 4.4 | ≤ 4.74 | 121 | 55.1 (≈ 189 µM) | – | –
13 | Cc1ncccc1CNc1ccc(CC#N)cc1 | 0.534 | 18.2 | 364 | – | – | –
14 | O=C(c1ccc(Cn2nnc(-c3cccc(F)c3)n2)cc1)N1CCCC1 | 0.793 | 12.1 | 125 | 10.8 (≈ 30.7 µM) | – | –
15 | O=c1sn(-c2cccc3ccccc23)c(=O)n1Cc1ccccc1 | – | – | – | 0.4 (≈ 1.2 µM) | – | –
16 | O=C(NC1CCNCC1)c1ccc2cn[nH]c2c1 | – | 16.1 | – | – | 1 | 0.511
17 | Cc1ccc(-c2nc(CN3CCOCC3)n(Cc3ccc(F)cc3)n2)o1 | 4.11 | 98.3 | 1400 | 28.9 (≈ 81.2 µM) | – | –
18 | CCCCC1=NC2(CCCC2)C(=O)N1Cc1ccc(-c2ccccc2-c2nn[nH]n2)cc1 | 148 | 10.7 | 151 | 37 (≈ 86.3 µM) | – | –
19 | COc1ccc(=O)n(Cc2noc3c2CCCC3)n1 | 0.806 | 11.4 | 270 | – | – | –
20 | O=C(Nc1ccc(Cl)nc1)NC1CCN(C2CCCC2)CC1 | 20.9 | ≤ 4.74 | ≤ 10.7 | – | – | –
21 | CC(C)(C)c1ccc(C2=NC3(CCNCC3)NC2=O)cc1 | 33.8 | 6.52 | 59.6 | 45 (≈ 158 µM) | – | –
22 | CC(C)COc1cc(F)cc(-c2cncc(C(=O)N3CCCC3)n2)c1 | 0.442 | – | – | 0.7 (≈ 2.04 µM) | – | –
23 | CO[C@H]1CC[C@@H](C(=O)c2ccc3nc4c(cc3c2)CCCO4)CC1 | 0.805 | 29.4 | 552 | 44.5 (≈ 137 µM) | – | –
24 | COc1cccc(-c2nnn(-c3ncnc4sc5c(c34)CCC5)n2)c1 | – | – | – | 0.26 (≈ 0.742 µM) | – | –
25 | Cc1ccc(C)c2nc3c(cc12)CNCCO3 | 0.525 | 23.7 | 234 | – | – | –
26 | Cc1noc(C)c1C(=O)N1CCCN(c2ccc(F)cc2)CC1 | 1.8 | 111 | 566 | 55.6 (≈ 175 µM) | – | –

Second part, the molecule after the results:

Row | MDR1-MDCK efflux ratio | intrinsic clearance, human liver microsomes [mL/min/kg] | intrinsic clearance, rat liver microsomes [mL/min/kg] | aqueous solubility [µg/mL] | fraction unbound, human plasma | fraction unbound, rat plasma | SMILES
27 | 0.788 | 251 | 3840 | 43.2 (≈ 117 µM) | – | – | O=C([C@H]1CCCN(Cc2ccc(Cl)cc2)C1)N1CCc2ccccc2C1
28 | – | 47.7 | 1310 | – | – | – | Nc1ccccc1-c1nc(C2CCCCCC2)no1
29 | 1.11 | ≤ 4.74 | ≤ 10.7 | – | – | – | Cc1cc(=O)oc2cc(NC(=O)[C@H](CCCCN)NC(=O)[C@H](CC3CCCCC3)NC(=O)OCC3c4ccccc4-c4ccccc43)ccc12 (Fmoc-[Cha]-Lys-{AMC})
30 | – | – | – | 45.7 (≈ 148 µM) | – | – | N#Cc1ccc(OCc2nnc(S)n2-c2ccccc2)cc1
31 | 0.496 | – | – | 0.45 (≈ 1.38 µM) | – | – | COc1cccc2cc(C(N)=S)/c(=N/Nc3ccccc3)oc12
32 | 0.841 | ≤ 4.74 | 18.1 | – | – | – | CCCc1noc2nc(-c3ccncc3)cc(C(=O)O)c12
33 | 0.589 | 93.6 | 566 | 23.1 (≈ 60.7 µM) | – | – | O=C(CN1CCOC(c2ccc(F)cc2)C1)Nc1ccccc1OC(F)F (stereo unspecified)
34 | – | ≤ 4.74 | ≤ 10.7 | 36.4 (≈ 175 µM) | – | – | Nc1cnn(CC(=O)N2CCCCC2)c1
35 | 0.599 | 10.9 | 106 | – | – | – | COC(C)(C)C(=O)Nc1ccnc(C(C)(C)C)n1
36 | – | 347 | 3200 | 21.4 (≈ 64.5 µM) | – | – | C=CCn1cc(CNCc2csc3ccc(Cl)cc23)c(C)n1
37 | – | ≤ 4.74 | ≤ 10.7 | – | – | – | O=C(NCc1ccc(CN2CCS(=O)(=O)CC2)cc1)c1ccon1
38 | 14.3 | 36.3 | 321 | – | – | – | C[C@@H]1CN(Cc2ccccc2)C[C@H]1c1nc2c(cnn2C2CCOCC2)c(=O)[nH]1
39 | – | – | – | 17.3 (≈ 71 µM) | – | – | c1cncc(-c2ccnn2CN2CCOCC2)c1
40 | – | 225 | 1470 | 1.22 (≈ 2.64 µM) | – | – | CCN(Cc1nc2cc(Cl)ccc2c(=O)[nH]1)C(=O)COc1ccccc1Cc1ccccc1
41 | 0.543 | ≤ 4.74 | 29.1 | 22.2 (≈ 78.1 µM) | – | – | COC(=O)Nc1ccc(Oc2nc3ccccc3o2)cc1
42 | – | 40.7 | 102 | 43 (≈ 157 µM) | – | – | CCc1cc2c(Nc3cnn(CC)c3)ncnc2s1
43 | 28.5 | 50.3 | 874 | 59.6 (≈ 133 µM) | – | – | Cc1nc(N)c2c(C(F)(F)F)cc(C3CCN(C(=O)Cc4ccc(F)cc4)CC3)nc2n1

Row | MDR1-MDCK efflux ratio | intrinsic clearance, human liver microsomes [mL/min/kg] | intrinsic clearance, rat liver microsomes [mL/min/kg] | aqueous solubility [µg/mL] | fraction unbound, human plasma | fraction unbound, rat plasma | SMILES
44 | 9.09 | 7.73 | – | – | 0.586 | – | O=C(Nc1ccc(CN2CCCCC2)cc1)c1ccnc2[nH]cnc12
45 | 0.953 | 192 | 1400 | – | – | – | Cc1noc(C)c1CS(=O)(=O)C1CCCc2ccccc21 (stereo unspecified)
46 | 0.85 | 519 | 3890 | 49.4 (≈ 150 µM) | – | – | CN(C(=O)C1CCN(c2ncccn2)CC1)C1CCCCCCC1
47 | – | – | – | 24.8 (≈ 121 µM) | – | – | Cc1cc(C(=O)O)c2ccc(F)cc2n1
48 | 2.65 | 34.8 | 533 | – | – | – | CCc1ccccc1S(=O)(=O)NCCc1cn[nH]c1
49 | – | – | – | 30.6 (≈ 108 µM) | – | – | N=C(NC(=O)OCc1ccccc1)c1ccc(CN)cc1
50 | 30.5 | ≤ 4.74 | 27.8 | 41.1 (≈ 166 µM) | – | – | O=C(NCCCn1ccnc1)N1CCC12CCC2
51 | – | – | – | 0.29 (≈ 0.992 µM) | – | – | Cc1ccc(NC(=O)c2nn(-c3ccccc3)nc2C)cc1
52 | 76.2 | 11.6 | 37.3 | 29.9 (≈ 59.7 µM) | 0.00442 | 0.00827 | Nc1n[nH]cc1-c1cc(Cl)ccc1Oc1cc(F)c(S(=O)(=O)Nc2cscn2)cc1Cl
53 | – | – | – | 63 (≈ 146 µM) | 0.102 | 0.114 | NC(=O)C1(Cc2ccc(-c3ccncc3)cc2)CCN(C(=O)Cc2cccc(F)c2)CC1
54 | 6.36 | 10.8 | 397 | – | – | – | COc1ccc(CN2CC(c3ccncc3)C2)cc1Cn1cccn1
55 | 108 | 18.4 | 91.3 | – | – | – | CNc1nc(C)nc(N[C@H]2CCC[C@@H](C(=O)NCc3ccc(C#N)cc3C(F)(F)F)C2)n1
56 | 25.1 | 464 | 1250 | – | 0.11 | 0.14 | CN(C)C(=O)C1(Cc2ccccc2-c2ccccc2)CCN(C(=O)c2cnn(C)c2)CC1
57 | 1.32 | ≤ 4.74 | ≤ 10.7 | 25.3 (≈ 97.9 µM) | – | – | C#CCOc1ccc(C(=O)NN2CCCC2=O)cc1
58 | 0.725 | 32.6 | 625 | 28.3 (≈ 83.5 µM) | – | – | CCc1ccc(-c2nccn2CC(=O)Nc2ccc(C)cc2F)nc1
59 | – | 9.51 | 29.1 | 36.2 (≈ 139 µM) | – | – | CNc1nc(C2CCNCC2)nc2c1CN(C)CC2
60 | – | 12.2 | 97.5 | – | – | – | Cn1nccc1C(=O)C1CCN(C(=O)c2cccs2)CC1

Reference: the Biogen ADME set (Fang et al. 2023)
